Experimental data from US10357492B2, “Levosimendan for use in the treatment of motor neuron diseases (E.G. ALS)” (Orion Corporation, priority 2014, dated 2019).

What was measured:
[1] = pharmacokinetics (half-life); settings: rat, in vivo; "in rats" printed for the active metabolite (II) only; read-out: t½ (converted)
[2] = test system: Antibody Induced Myasthenia Gravis Model in Female Lewis Rats; test: accelerated rotating rod test (Rotarod) in antibody induced myasthenia gravis model; type: in vivo; settings: single oral dosage on day 2 (48 h after antibody); levosimendan 0.25 mg/kg, active metabolite (II) 0.025 mg/kg; measured 0.5 h, 1 h, 2 h after treatment; FIG. 1
Experimental: (§1) The effects of levosimendan and its active metabolite (II) on skeletal muscle weakness were studied in an experimental model of Myasthenia Gravis (Russell A J et al., Nat Med 18 (3), 2012, 452-5). Myasthenia Gravis was induced in female Lewis rats by injecting 500 μg/kg of nAChRα1/3/5 antibody (SC-58604, Santa Cruz Biotechnology) intraperitoneally on day 0. Animals with 40-70% drop in muscle strength from baseline at 48 h after administration of the antibody were randomized into treatment groups: 1) Vehicle control (n=6) (0.5% Methocel 5 ml/kg orally), 2) Levosimendan (n=6) (0.25 mg/kg orally), 3) Active metabolite (II) (n=6) (0.025 mg/kg orally).
Coordination, balance, and motor skill acquisition were tested using an accelerated rotating rod test (Rotarod, Ugo Basile, Comerio, Italy). Rats were placed on a rod that accelerated smoothly from 4 to 40 rpm over a period of 5 min. The length of time that each animal was able to stay on the rod was recorded. Three consecutive measurements were performed. Rats were trained for the test four times one day before and twice on the day of antibody injection. Effects of different drug treatments on Rotarod response were measured 0.5 h, 1 h, and 2 h after oral treatment on day 2, i.e. 48 hours after the induction of Myasthenia Gravis.

[3] = test system: Antibody Induced Myasthenia Gravis Model in Female Lewis Rats; test: treadmill exercise capacity test in antibody induced myasthenia gravis model; type: in vivo; settings: 2 h post-dosing of repeated oral dosage on day 3 (72 h after antibody); levosimendan 0.25 mg/kg, active metabolite (II) 0.025 mg/kg; FIG. 2
Experimental: as §1
Exercise capacity measurements were performed with airtight treadmill (Accupacer treadmill, Accuscan Instruments, USA) connected to a respiratory gas analysing system. Rehearsals and exercise capacity measurements were started with familiarising the rats with the treadmill chambers for 15 minutes (restmill). The exercise program consisted of 15 min running at 10 m/min until the rat was incapable to keep up the speed despite of electric shock motivation. Rats were trained for the test three times one day before and twice on the day of antibody injection. Effects of different drug treatments on treadmill responses were measured 1 h and 2 h after oral treatment on day 3 (72 h after induction of Myasthenia Gravis).

half-life [1] | SMILES | effect on muscle function in Rotarod test (time able to stay on the rotating rod) [2] | effect on skeletal muscle function in treadmill test (exercise duration) [3]
5 h | CC(=O)Nc1ccc(C2=NNC(=O)C[C@H]2C)cc1 [active metabolite (II), (R)—N-[4-(1,4,5,6-tetrahydro-4-methyl-6-oxo-3-pyridazinyl)phenyl]-acetamide] | acute and transient improvement in muscle function | positive effect
0.7 h | CC1CC(=O)NN=C1c1ccc(NN=C(C#N)C#N)cc1 (single isomer, unassigned) [Levosimendan, [[4-(1,4,5,6-tetrahydro-4-methyl-6-oxo-3-pyridazinyl)phenyl]hydrazono]propanedinitrile] | acute and transient improvement in muscle function | positive effect
